From article PMC9967645, “OAT3 Participates in Drug–Drug Interaction between Bentysrepinine and Entecavir through Interactions with M8—A Metabolite of Bentysrepinine—In Rats and Humans In Vitro” (Molecules, 2023)

Experiments:
hOAT1 = molecular target: T1, hOAT1 (Homo sapiens, UniProt Q4U2R8); experiment: In vitro uptake assay in hOAT1-HEK293 cells; format: in vitro ADME; details: Y101 2.0 µM, M8 10 µM; for inhibition of the uptake of ETV in hOAT1-HEK293 cells: ETV 10 µM; for substrate of hOAT1 (uptake in hOAT1-HEK293 vs mock-HEK293 cells): PAH 10 µM
T1 construct: expressed in transfected cells; host or cells: HEK293
T1 sequence (Q4U2R8 1-563): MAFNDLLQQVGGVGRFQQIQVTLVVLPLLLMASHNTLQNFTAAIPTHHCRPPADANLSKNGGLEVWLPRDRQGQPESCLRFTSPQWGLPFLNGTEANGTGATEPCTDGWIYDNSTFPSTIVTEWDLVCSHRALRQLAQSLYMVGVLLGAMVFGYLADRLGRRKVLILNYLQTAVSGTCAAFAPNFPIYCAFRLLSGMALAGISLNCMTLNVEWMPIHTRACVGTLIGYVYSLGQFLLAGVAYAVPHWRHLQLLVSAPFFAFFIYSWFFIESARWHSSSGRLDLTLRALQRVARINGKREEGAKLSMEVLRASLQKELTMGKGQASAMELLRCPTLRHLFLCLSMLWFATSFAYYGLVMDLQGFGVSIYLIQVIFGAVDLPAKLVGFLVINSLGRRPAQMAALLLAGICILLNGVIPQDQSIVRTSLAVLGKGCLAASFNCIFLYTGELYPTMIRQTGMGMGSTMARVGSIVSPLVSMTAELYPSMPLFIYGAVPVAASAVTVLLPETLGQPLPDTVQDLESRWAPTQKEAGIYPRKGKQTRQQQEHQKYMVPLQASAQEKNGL
Protocol: The hOAT1-HEK293, hOAT3-HEK293 and mock cells were cultured in Dulbecco modified Eagle medium (DMEM) containing 10% fetal bovine serum (FBS) and 1% penicillin/streptomycin in an atmosphere of 5% CO2 air at 37 °C. The HEK293 cells were plated on 24-well plates at a density of 5 × 10^5 cells/well. […] Uptake assay was initiated by adding 1 mL of the transporter buffer containing Y101, M8, ETV or probe substrate. Following incubation with gentle shaking, the uptake was terminated at designated time by removing the transporter buffer and washing cells three times with 1 mL of ice-cold HBSS. Next, substrates of Y101, M8, ETV, PAH and ES in cell monolayer were released by lysing the cells with 0.3 mL of 0.1% Triton X-100 for 2 h and determined by liquid chromatography–tandem mass spectrometry (LC–MS/MS). In the time-course uptake assay, Y101 (2.0 µM) and M8 (10 µM) in the presence or absence of PRO (100 µM) were measured in hOAT1-HEK293, hOAT3-HEK293 and mock cells. The concentration-dependent uptake of M8 was determined in hOAT3-HEK293 cells, and incubation time (5 min) was optimized. The uptake of M8 (10 µM) with or without ETV was examined in hOAT3-HEK293 cells. The uptake of ETV (10 µM) with or without Y101 or M8 was also measured in hOAT1-HEK293 and hOAT3-HEK293 cells, respectively. Furthermore, PAH and ES at concentrations of 10 µM were used as positive control in hOAT1-HEK293 and hOAT3-HEK293 cells, respectively. Protein concentrations were measured by the bicinchoninic acid procedure (Solarbio, Beijing, China) using bovine serum albumin as the standard.
Biological samples were prepared as previously described. Aliquots (50 µL) of urine, plasma, kidney homogenates, or cell lysates were individually mixed with 150 µL methanol and 50 µL working solution of internal standard (acetaminophen or bestatin), followed by vortexing for 1 min and centrifuging at 13,800 g for 10 min. […] The resulting supernatant (1 µL) was subjected to LC-MS/MS for the assessment of Y101, M8, M9 and ETV, respectively. […] The concentrations of ETV, Y101, M8 and M9 were determined by an AB QTRAP 5500 LC–MS/MS System (Foster City, CA, USA) as previously described. […] Analyst1.5.2 software was used for data processing and analysis.

HBV = test system: HBV; parameters: method as in PMID 32277364, PMID 21872478, PMID 19307124, doi:10.1016/S1674-6384(15)60018-1; details: dose-dependent; cited from earlier work
[1] = test system: lamivudine and entecavir-resistant HBV; parameters: method as in PMID 32277364, PMID 21872478, PMID 19307124, doi:10.1016/S1674-6384(15)60018-1; details: A64 cells; cited from earlier work
[2] = concanavalin A and alpha-naphthylisothiocyanate-induced; cited from earlier work
[3] = parameters: method as in PMID 32277364, PMID 29258048; details: healthy Chinese volunteers, phase I; cited from earlier work
[4] = human, in vivo; cited from earlier work
hOAT3 = molecular target: T2, hOAT3 (Homo sapiens, UniProt Q8TCC7); parameters: expressed in transfected cells; host or cells: HEK293; method as in PMID 23313623; details: read-out: Km (affinity with hOAT3); cited from earlier work
T2 sequence (Q8TCC7 1-542): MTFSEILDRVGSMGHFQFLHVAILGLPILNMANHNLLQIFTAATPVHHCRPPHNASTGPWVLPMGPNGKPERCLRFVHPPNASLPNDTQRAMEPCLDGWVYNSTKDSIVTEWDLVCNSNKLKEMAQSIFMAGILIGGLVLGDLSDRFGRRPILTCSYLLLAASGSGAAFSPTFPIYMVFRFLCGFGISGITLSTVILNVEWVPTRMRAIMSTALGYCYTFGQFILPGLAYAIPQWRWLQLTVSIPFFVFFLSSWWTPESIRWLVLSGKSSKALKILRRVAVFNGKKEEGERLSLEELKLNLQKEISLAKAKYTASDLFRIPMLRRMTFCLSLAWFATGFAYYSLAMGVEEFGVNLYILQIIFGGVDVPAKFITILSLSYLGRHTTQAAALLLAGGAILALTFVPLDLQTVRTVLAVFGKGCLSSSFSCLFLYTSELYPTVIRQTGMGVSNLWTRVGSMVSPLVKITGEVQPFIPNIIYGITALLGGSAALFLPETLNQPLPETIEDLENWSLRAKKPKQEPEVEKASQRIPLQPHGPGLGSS

SMILES	inhibition of the uptake of ETV in hOAT1-HEK293 cells (hOAT1)	substrate of hOAT1 (uptake in hOAT1-HEK293 vs mock-HEK293 cells) (hOAT1)	inhibitory effects on HBsAg and HBV-DNA replication (HBV)	activity against lamivudine and entecavir-resistant HBV replication [1]	protective effects on induced liver injury [2]	safety and tolerability [3]	plasma concentrations [4]	Km (hOAT3)
CN(C)CCOc1ccc(C[C@H](NC(=O)c2ccccc2)C(=O)N[C@H](CO)Cc2ccccc2)cc1.Cl [Y101, N-[N-benzoyl-O-(2-dimethylaminoethyl)-l-tyrosyl]-l-phenylalaninol hydrochloride]	not inhibited	not a substrate of hOAT1 or hOAT3	potent inhibitory effects	significant activity	protective effects	acceptable safety and tolerability		
CN(C)CCOc1ccc(CC(NC(=O)c2ccccc2)C(=O)O)cc1 (stereo not shown) [M8]	not inhibited	not a substrate of hOAT1						
C=C1[C@H](CO)[C@@H](O)C[C@@H]1n1cnc2c(=O)[nH]c(N)nc21 [ETV, entecavir]							lower than 50 nM	23 µM
